Reference: US9663495B2 (YUHAN CORPORATION, priority 2013, dated 2017)

Legend:
[1] = molecular target: T1, GPR119 (Homo sapiens, UniProt Q8TDV5); assay: cAMP Accumulation Assay (GPR119 CRE-bla CHO-K1 cells, LiveBLAzer-FRET B/G); format: cell-based; details: for EC50: 5 hours incubation; for Emax (Fold): maximum activity, response ratio versus non-treated control group
T1 construct: host or cells: CHO-K1 (GPR119 CRE-bla, doxycycline-induced)
T1 sequence (Q8TDV5 1-335): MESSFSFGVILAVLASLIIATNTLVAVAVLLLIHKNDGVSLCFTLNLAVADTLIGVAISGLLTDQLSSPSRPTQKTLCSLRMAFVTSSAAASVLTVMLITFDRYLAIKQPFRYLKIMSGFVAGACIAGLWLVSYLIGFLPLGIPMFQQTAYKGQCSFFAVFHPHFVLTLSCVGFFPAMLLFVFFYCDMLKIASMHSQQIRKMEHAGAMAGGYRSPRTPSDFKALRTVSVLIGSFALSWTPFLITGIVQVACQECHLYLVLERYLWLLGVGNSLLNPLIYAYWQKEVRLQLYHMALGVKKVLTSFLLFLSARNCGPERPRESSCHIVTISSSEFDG
Description: 32 μl of an assay medium (DMEM supplemented with GlutaMax™ 99%, dialyzed FBS 1%, non-essential amino acid 1 mM, HEPES 25 mM, penicillin 100 U/ml, and streptomycin 100 μg/ml) was added to each well of a 384 black well plate and then the GPR119 CRE-bla CHO-K1 cells (Invitrogen) were seeded in 1×10^4 cells per well. Doxycycline was dissolved in the assay medium in the concentration of 1 μg/ml. The resulting solution (4 μl) was added to each well, which was then incubated in a 5% CO 2 incubator at 37° C. for about 20 to 24 hours. Each test compounds were diluted with the assay medium to prepare 10 samples, which have concentrations ranging from […], respectively. Each samples (8 μl) was added to each well, which was then incubated in a 5% CO2 incubator at 37° C. for 5 hours. In case of the control group, the well was treated with a solution (8 μl) prepared by diluting dimethyl sulfoxide (DMSO) in the assay medium to 1%. The substrate mixture (8 μl) was added to each well, which was then left under darkness at room temperature for 2 hours. The substrate mixture contains the followings: 1 mM LiveBLAzer™-FRET B/G(CCF4-AM) substrate 6 μl, solution B 60 μl, solution C 904 μl, and solution D 30 μl.
Fluorescence intensity was determined under the wavelength conditions of 400 nm/465 nm (excitation/emission) for the blue channel and 400 nm/535 nm (excitation/emission) for the green channel, with the fluorescence microplate reader (SpectraFluor Plus. TECAN). The net activity of each well was calculated by subtracting the average value of the cell-free control group from the value of the unstimulated (i.e., non-treated) control group or the stimulated (i.e., test compound-treated) group at each wavelength. MBX-2982 (Metabolex) was used as a control drug. The response ratio was calculated by dividing the net signal ratio (465 nm/535 nm) of the control drug or the test compound by the net signal ratio (465 nm/535 nm) of the non-treated control group. The relative ratio (R.R) was calculated by dividing the maximum activity [Emax (fold)] of the test compound (i.e., % activity in comparison with the background) by the maximum activity [Emax (fold)] of the control drug (MBX-2982) [Emax (% RR)=(Emax of the test compound/Emax of MBX-2982)×100]. EC50 (half maximal effective concentration) was calculated using the software for statistical analysis “Prism 5.0 (GraphPad)”, based on the values obtained according to concentrations of the test compounds.

[2] = molecular target: T1, GPR119; assay: as above; format: cell-based; details: (Emax of the test compound/Emax of MBX-2982)x100, 5 hours incubation

| EC50 [1] | Emax (Fold) [1] | Emax (% RR) [2] | SMILES |
| --- | --- | --- | --- |
| 10 nM | 3.4 Fold | 148.7 % RR | CCc1cnc(N2CCN(c3ncc(-c4ccc(-n5cnn(CCOC)c5=O)c(F)c4)cc3C#N)CC2)nc1 [Example 31, 5-(4-(1-(2-methoxyethyl)-5-oxo-1H-1,2,4-triazol-4(5H)-yl)-3-fluorophenyl)-2-(4-(5-ethylpyrimidin-2-yl)piperazin-1-yl)nicotinonitrile] |
| 1.3 nM | 3.5 Fold | 122.7 % RR | CCCn1ncn(-c2ccc(-c3cnc(N4CCC(c5nc(C(C)C)no5)CC4)c(C#N)c3)cc2F)c1=O [Example 62, 5-(3-fluoro-4-(5-oxo-1-propyl-1H-1,2,4-triazol-4(5H)-yl)phenyl)-2-(4-(3-isopropyl-1,2,4-oxadiazol-5-yl)piperidin-1-yl)nicotinonitrile] |
| 10.2 nM | 3.2 Fold | 119.3 % RR | CCc1cnc(N2CCN(c3ncc(-c4ccc(-n5cnn(COC)c5=O)c(F)c4)cc3C#N)[C@@H](C)C2)nc1 [Example 22, (S)-2-(4-(5-ethylpyrimidin-2-yl)-2-methylpiperazin-1-yl)-5-(3-fluoro-4-(1-(methoxymethyl)-5-oxo-1H-1,2,4-triazol-4(5H)-yl)phenyl)nicotinonitrile] |
| 7.3 nM | 4.2 Fold | 144.7 % RR | CCCn1ncn(-c2ccc(-c3cnc(N4CCN(c5noc(C(C)C)n5)CC4)c(C#N)c3)cc2F)c1=O.Cl [Example 49, 5-(3-fluoro-4-(5-oxo-1-propyl-1H-1,2,4-triazol-4(5H)-yl)phenyl)-2-(4-(5-isopropyl-1,2,4-oxadiazol-3-yl)piperazin-1-yl)nicotinonitrile hydrochloride] |
| 5.4 nM | 3.5 Fold | 113.0 % RR | CCc1cnc(N2CCN(c3ncc(-c4ccc(-n5cnn(CCN(C(=O)OC(C)(C)C)C(C)C)c5=O)c(F)c4)cc3C#N)[C@@H](C)C2)nc1 [Example 19, (S)-tert-butyl 2-(4-(4-(5-cyano-6-(4-(5-ethylpyrimidin-2-yl)-2-methylpiperazin-1-yl)pyridin-3-yl)-2-fluorophenyl)-5-oxo-4,5-dihydro-1H-1,2,4-triazol-1-yl)ethyl(isopropyl)carbamate] |
| 8.2 nM | 2.9 Fold | 101.3 % RR | CC(C)n1ncn(-c2ccc(-c3cnc(N4CCC(c5nnc(C(F)(F)F)o5)CC4)c(C#N)c3)cc2)c1=O [Example 73, 5-(4-(1-isopropyl-5-oxo-1H-1,2,4-triazol-4(5H)-yl)phenyl)-2-(4-(5-(trifluoromethyl)-1,3,4-oxadiazol-2-yl)piperidin-1-yl)nicotinonitrile] |
| 31 nM | 2.5 Fold | 100.8 % RR | C=C(C)OC(=O)N(C)C1CCN(c2ncc(-c3ccc(-n4cnn(C(C)C)c4=O)c(F)c3)cc2C#N)CC1 [Example 59, prop-1-en-2-yl 1-(3-cyano-5-(3-fluoro-4-(1-isopropyl-5-oxo-1H-1,2,4-triazol-4(5H)-yl)phenyl)pyridin-2-yl)piperidin-4-yl(methyl)carbamate] |
| 16 nM | 3.0 Fold | 109.1 % RR | COCn1ncn(-c2ccc(-c3cnc(N4CCN(c5noc(C(C)C)n5)CC4)c(C#N)c3)cc2)c1=O [Example 48, 2-(4-(5-isopropyl-1,2,4-oxadiazol-3-yl)piperazin-1-yl)-5-(4-(1-(methoxymethyl)-5-oxo-1H-1,2,4-triazol-4(5H)-yl)phenyl)nicotinonitrile] |
| 1.5 nM | 3.1 Fold | 110.1 % RR | CCc1cnc(N2CCN(c3ncc(-c4cc(F)c(-n5cnn(C)c5=O)cc4F)cc3C#N)[C@@H](C)C2)nc1 [Example 29, (S)-5-(2,5-difluoro-4-(1-methyl-5-oxo-1H-1,2,4-triazol-4(5H)-yl)phenyl)-2-(4-(5-ethylpyrimidin-2-yl)-2-methylpiperazin-1-yl)nicotinonitrile] |
| 3.8 nM | 3.9 Fold | 133.6 % RR | CCc1cnc(N2CCN(c3ncc(-c4ccc(-n5cnn(C)c5=O)cc4)cc3C#N)CC2)nc1 [Example 39, 2-(4-(5-ethylpyrimidin-2-yl)piperazin-1-yl)-5-(4-(1-methyl-5-oxo-1H-1,2,4-triazol-4(5H)-yl)phenyl)nicotinonitrile] |
| 13.2 nM | 4.3 Fold | 118.1 % RR | CCc1cnc(N2CCN(c3ncc(-c4ccc(-n5cnn(C[C@H](O)CO)c5=O)c(F)c4)cc3C#N)CC2)nc1 [Example 36, (S)-5-(4-(1-(2,3-dihydroxypropyl)-5-oxo-1H-1,2,4-triazol-4(5H)-yl)-3-fluorophenyl)-2-(4-(5-ethylpyrimidin-2-yl)piperazin-1-yl)nicotinonitrile] |
| 2.6 nM | 3.8 Fold | 130.8 % RR | CC(C)c1noc(C2CCN(c3ncc(-c4ccc(-n5cnn(CN6CCCC6)c5=O)c(F)c4)cc3C#N)CC2)n1 [Example 64, 5-(3-fluoro-4-(5-oxo-1-(pyrrolidin-1-ylmethyl)-1H-1,2,4-triazol-4(5H)-yl)phenyl)-2-(4-(3-isopropyl-1,2,4-oxadiazol-5-yl)piperidin-1-yl)nicotinonitrile] |
| 5 nM | 2.5 Fold | 113.4 % RR | C[C@H]1CN(c2ccc(C(F)(F)F)cn2)CCN1c1ncc(-c2ccc(-n3cnn(C)c3=O)c(F)c2)cn1 [Example 8, (S)-4-(2-fluoro-4-(2-(2-methyl-4-(5-(trifluoromethyl)pyridin-2-yl)piperazin-1-yl)pyrimidin-5-yl)phenyl)-1-methyl-1H-1,2,4-triazol-5(4H)-one] |
| 31.9 nM | 3.3 Fold | 101.6 % RR | CCCn1ncn(-c2ccc(-c3cnc(N4CCN(C(=O)OC(C)(C)C)C[C@@H]4C)nc3)cc2F)c1=O [Example 2, (S)-tert-butyl 4-(5-(3-fluoro-4-(5-oxo-1-propyl-1H-1,2,4-triazol-4(5H)-yl)phenyl)pyrimidin-2-yl)-3-methylpiperazin-1-carboxylate] |
| 2 nM | 2.9 Fold | 102.0 % RR | CCc1cnc(N2CCN(c3ncc(-c4ccc(-n5cn[nH]c5=O)c(F)c4)cc3C#N)[C@@H](C)C2)nc1 [Example 21, (S)-2-(4-(5-ethylpyrimidin-2-yl)-2-methylpiperazin-1-yl)-5-(3-fluoro-4-(5-oxo-1H-1,2,4-triazol-4(5H)-yl)phenyl)nicotinonitrile] |
| 3 nM | 2.8 Fold | 118.2 % RR | CCc1cnc(N2CCN(c3ncc(-c4ccc(-n5cnn(C)c5=O)c(F)c4)cc3C#N)[C@@H](C)C2)nc1 [Example 9, (S)-2-(4-(5-ethylpyrimidin-2-yl)-2-methylpiperazin-1-yl)-5-(3-fluoro-4-(1-methyl-5-oxo-1H-1,2,4-triazol-4(5H)-yl)phenyl)nicotinonitrile] |
| 54.9 nM | 3.5 Fold | 108.0 % RR | COCCn1ncn(-c2ccc(-c3cnc(N4CCN(C(=O)OC(C)(C)C)C[C@@H]4C)nc3)cc2F)c1=O [Example 4, (S)-tert-butyl 4-(5-(3-fluoro-4-(1-(2-methoxyethyl)-5-oxo-1H-1,2,4-triazol-4(5H)-yl)phenyl)pyrimidin-2-yl)-3-methylpiperazin-1-carboxylate] |
| 1.5 nM | 3.8 Fold | 130.9 % RR | CCc1cnc(N2CCN(c3ncc(-c4ccc(-n5cnn(C(C)C)c5=O)c(F)c4)cc3C#N)CC2)nc1 [Example 30, 2-(4-(5-ethylpyrimidin-2-yl)piperazin-1-yl)-5-(3-fluoro-4-(1-isopropyl-5-oxo-1H-1,2,4-triazol-4(5H)-yl)phenyl)nicotinonitrile] |
